Source: US12653914B2, “Compounds for fast and efficient click release” (priority 2019, dated 2026)
Like-named read-outs stand apart in the source and are kept apart here.

Key:
[1] = Trigger stability in vitro in PBS; format: physicochemical; details: 37° C., 200 μM, after 48 h, n=3
Procedure: (§1) 1.13 was incubated at 37° C. in PBS and human plasma at a concentration of 200 μM. The concentration after 12, 24 and 48 h was determined (n=3) by titration with activator 2.9 and simultaneous absorbance measurements.

[2] = Second order rate constants, TCO with tetrazine activators, stopped-flow spectrophotometry in PBS; details: PBS at 37° C., 25 μM tetrazine, 50 μM TCO
Procedure: Second order rate constants for the reaction of tetrazines activators with 1.13 and 1.71 were determined using a SX20 stopped-flow spectrophotometer from Applied Photophysics. Measurements were performed at 37° C. with 25 μM tetrazine and 50 μM TCO in PBS, in triplicates, monitored at 535 nm. Data was analyzed using GraphPad Prism. Second order rate constants were determined from nonlinear fitting of the absorbance vs. time curves to the second order rate equation. […] Importantly, 2.17 and 2.18 are very reactive, but afford low release yields with TCO triggers that are not part of this invention (i.e. 1.71) [Versteegen et al., Angew. Chem. Int. Ed. 2013, 52, 14112-14116].

[3] = format: in vitro ADME; details: human, 200 μM
Procedure: as §1

## COC(=O)[C@]1(O)CC/C=C/[C@H](OC(=O)NCCOCCOCCOCCO)CC1 [Compound 1.13, Methyl(1S,4E,6R)-1-hydroxy-6-{[(2-{2-[2-(2-hydroxyethoxy)ethoxy]ethoxy}ethyl)carbamoyl]oxy}cyclooct-4-ene-1-carboxylate]
[1]
  intact TCO: 101±5%
[2]; activator 2.12
  k2: 260 ± 40 M⁻¹ s⁻¹
[2]; activator 2.17
  k2: 8700 ± 1200 M⁻¹ s⁻¹
[2]; activator 2.18
  k2: 10400 ± 1100 M⁻¹ s⁻¹
[2]; activator 2.9
  k2: 70 ± 10 M⁻¹ s⁻¹
[3]; 24 h
  residual intact TCO: 98±7%
[3]; 48 h
  residual intact TCO: 76±9%
